Reference: patent US9422350B2, “Target of EGR1 (TOE1) polypeptides for inhibition of HIV” (priority 2010, dated 2016)
“Also recorded” adds a separate entry of the source.

Legend:
[1] = tested on: Tat driven HIV LTR expression; assay: Tat-driven HIV LTR (TAR) luciferase reporter assay in transfected HeLa cells; type: cell-based; details: for inhibitory activity of Tat activation of HIV LTR compared with wild-type TOE1: HeLa cells, luciferase, FIG. 7
Method: FIG. 3: TOE1 inhibits Tat driven HIV LTR expression. HeLa cells were seeded into 24 wells plates at 30,000 cells/well and then transfected the following day with the indicated constructs at 200 ng total DNA+0.5 μl of FuGENE™ (Roche)/well. 24 hours after transfection the cells were lysed and the luciferase expression was determined by reading Relative Bioluminescent Units (RLU). This graph is representative of multiple experiments performed in triplicates.
FIG. 7: TOE1 processing by caspase-1 enhances its inhibition of HIV LTR transactivation by Tat. (A) HeLa cells were transfected with the indicated constructs, and then luciferase assay was performed as described above. […] All transfection and measurements were performed in triplicate.
FIG. 9: Defining the minimal TOE1 region able to inhibit Tat-induced HIV LTR activation. […] Results are expressed as percentage activation of the HIV LTR referenced to Tat. All transfections and measurements were performed in triplicate, and results are representative of multiple independent experiments.
To test for a potential interaction between TOE1 and Tat, we assessed the effect of TOE1 expression on Tat driven transactivation of the TAR element. We employed a luciferase expression system controlled by the HIV LTR including the TAR sequence.

[2] = target: T1, caspase-1 (Homo sapiens, UniProt P29466); assay: In vitro digestion of immunoprecipitated TOE1 with recombinant caspase-1, Western blot; type: biochemical; details: caspase-1 incubation 4 hours at 37° C., FIG. 4
T1 construct: purchased Calbiochem
T1 sequence (P29466 120-297 limits assumed): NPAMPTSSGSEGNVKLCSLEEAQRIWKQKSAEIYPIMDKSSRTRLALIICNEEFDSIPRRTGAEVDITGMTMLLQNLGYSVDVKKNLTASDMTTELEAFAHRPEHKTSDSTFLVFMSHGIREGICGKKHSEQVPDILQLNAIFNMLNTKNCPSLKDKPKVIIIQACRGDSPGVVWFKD
Method: FIG. 4: TOE1 is a substrate for caspase-1. (A) Endogenously expressed TOE1 was immunoprecipitated from a lysate of Jurkat cells using the rabbit polyclonal α-TOE1 antibody or pre-immune serum (control=C) and ProteinA/Sepharose™ beads. Immunoprecipitates complexed beads were then incubated with 5 units of recombinant caspase-1 (from Calbiochem) or control buffer, as indicated, for 4 hours at 37° C., and then separated on a 12% Acrylamide/SDS gel and transferred on a PVDF membrane. 50 kDa, 40 kDa and 30 kDa fragments are visible after probing the blot with the monoclonal α-TOE1 antibody. (B) Cell lysates from cells transfected with a TOE1 expression construct were subjected to immunoprecipitation with the rabbit α-TOE1 antibody and ProteinA/Sepharose™ beads.
Since, as described earlier, CAF activity is reported to be dependent upon proteolytic activity, we decided to explore the possibility that TOE1 is a protease substrate. […] The software predicts a single cleavage for the tetrapeptide FTAD at position 214-217 of TOE1. We considered this potential cleavage to warrant further study for several reasons. […] Under our experimental conditions we observed processing by casapse-1 generating fragments of 50, 40, and 30 kDa as detected with a monoclonal anti-TOE1 antibody whose target epitope we have mapped to residues 218-282 (FIG. 4A). […]

[3] = tested on: Tat-driven HIV LTR activity; assay: Co-culture of transfected 293T cells with HeLa cells carrying HIV LTR reporter and Tat; type: cell-based; details: 293T transfected with construct, co-cultured 24 hours with HeLa (HIV LTR + Tat), FIG. 11
Method: FIG. 11. TOE1 can be secreted and inhibits HIV LTR in neighboring cells. HeLa cells were transfected with either HIV LTR alone, or together with Tat as indicated. Separately, 293T cells were transfected with either control empty vector (C), full length TOE1 (TOE1), or a deletion mutant comprising amino acids 283-363 (SEQ ID NO:13) containing the basic region located at 335-348 (283-363). 24 hours following transfection, the transfected 293T cells were placed in co-culture with the transfected HeLa cells to provide the samples. 24 hours after co-culture, samples were assayed for Tat-driven HIV LTR activity.
To determine if TOE1 could be secreted and subsequently taken up by other neighboring cells, we performed co-culture experiments of cells transfected with the HIV LTR reporter and Tat protein in one cell type and either full length TOE1 or the potential protein transduction domain of TOE1 comprising amino acids 283-363 (SEQ ID NO:13) in another cell type. […] Therefore, a minimal domain of TOE1, comprising the basic stretch of amino acids at position 335-347 (SEQ ID NO:15), was able to function as a protein transduction domain as well as an effective inhibitor of Tat transcriptional activation.

Substance: 335-363 (KRRRRRRREKRKRALLNLPGTQTSGEAKD; K335/D363 Deletion mutant of TOE1)
- inhibition of Tat activation of the HIV LTR by TOE1 deletion mutants ([1]; transfected deletion mutants, FIG. 9): significantly inhibiting

Substance: D195/282A
- inhibitory activity of Tat activation of HIV LTR compared with wild-type TOE1 [1]: less effective than wild type TOE1; also recorded: significantly less effective

Substance: YVAD-CHO
- inhibition of TOE1 processing by caspase-1 [2]: completely prevents the processing; also recorded: processing was inhibited

Substance: delN282
- inhibitory activity of Tat activation of HIV LTR compared with wild-type TOE1 [1]: more efficient inhibitor; also recorded: greater inhibition than wild-type TOE1

Substance: TOE1: human TOE1 (target of EGR1) protein, full length, 510 amino acids
- effect on the LTR in the absence of Tat ([1]; HIV LTR luciferase, no Tat): did not have any effect
- reduction of Tat transactivation potential ([1]; TOE1 coexpressed with Tat, HIV LTR incl. TAR luciferase, different experiments (FIG. 3)): 50-80%
- inhibition of Tat activation of the HIV LTR in neighboring cells [3]: effectively inhibiting
